Measured values taken from PubChem BioAssay AID179 (DTP/NCI, 2004).
“And” between values parts separate entries of the source, which are not always exact repeats. Equal entries are not always repeated. The source made the active and inactive calls.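 Rule for the calls: active = compounds giving half or more protection of infected cells from virus-caused growth loss, again on retest; inactive = the rest.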 Where a SMILES comes first, the peptide text is derived from it. The star is where a group is joined. Myristoyl = CCCCCCCCCCCCCC(=O)*

Test system: CEM cells HIV-1 protection, formazan growth assay
Assay: NCI AIDS Antiviral Assay
Conditions: for IC50: measured here: growth of uninfected CEM cells
Procedure, shortened: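 Human CEM cells, uninfected and HIV-1-infected, received five drug concentrations, and growth was read by soluble formazan assay. Compounds giving at least 50% protection were retested; reproducible 100% protection defined confirmed active.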

Compound	EC50	IC50	outcome
N#Cc1c2c(c(Nc3ccc(Cl)cc3)n3c1nc1ccccc13)CCCC2	> 200 µM	11.5 µM	
O=C1c2ccccc2C(=O)N1CCC[P+](c1ccccc1)(c1ccccc1)c1ccccc1	> 200 µM	95.5 µM	
CC(N)CNCCCNCCNCCCNCO (configuration not stated)	> 100 µM	> 100 µM	
COc1c2c(cc3c1OCO3)[C@]13C=C[C@H](OC)C[C@H]1N(C2)CC3O (some centres not stated)	> 126 µM	> 126 µM	
COc1cc(C2c3cc4c(cc3OC(N3CCOCC3)C2C)OCO4)cc(OC)c1OC(C)=O (configuration not stated)	> 200 µM	3.31 µM	
O=C(C=Nc1ccccc1S)c1cccs1	> 5.89 µM	> 5.89 µM	
O=C1c2scnc2-c2nccc3c2c1nc1ccccc13	> 2.51 µM	0.457 µM	
Cc1cccc(NC(=O)Cc2nc3ccccc3s2)c1C	> 17.8 µM	> 17.8 µM	
O=C1c2c([nH]ccc2=O)-c2nccc3c2c1nc1ccccc13	> 2 µM	0.603 µM	
Nc1cc2cccc[n+]2c2cccc(Cl)c12	> 200 µM	4.47 µM	
CC1=Nc2nc(=NCCCN(C)C)nc3cccc(n23)N1	> 200 µM	> 200 µM	
C[C@]12OC(=O)[C@]3(O)CC[C@H]4[C@@H](C[C@@H](O)[C@@]5(Cl)CC=CC(=O)[C@]45C)[C@]45OCC6C(=O)O[C@@H]1C[C@@]6(C)[C@H](C4=O)[C@@]32O5 (some centres not stated)	> 2 µM	0.871 µM	
S=c1sc(-c2ccc(Cl)cc2)nn1CSc1nc2ccccc2o1	> 200 µM	> 200 µM	
COC1(C(C)(C)C)C=C(C(C)(C)C)P(=O)(O)O1 (configuration not stated)	> 200 µM	> 200 µM	
O=C(NCc1ccc(O)cc1O)c1ccccc1O	> 200 µM	138 µM	
CC1=Nc2cc(C(=O)c3ccccc3)ccc2N=C(c2c(O)c3c(ccc4ccccc43)oc2=O)C1	> 20 µM	> 20 µM	
CC(=O)OCC1OC(Nc2cc(=O)[nH]c(=O)[nH]2)C(OC(C)=O)C(OC(C)=O)C1OC(C)=O (configuration not stated)			inactive
O=C(CCN1CCCCC1CCO)Nc1ccc2c(c1)C(=O)c1ccc(NC(=O)CCN3CCCCC3CCO)cc1C2=O (configuration not stated)	> 200 µM	2.63 µM	
Cc1cc(O)c(C(C)C)cc1C1(c2cc(C(C)C)c(O)cc2C)OS(=O)(=O)c2ccccc21			inactive
CC1=Nc2nc(=N)nc3cccc(n23)N1	> 200 µM	170 µM	
O=C(CC(=O)n1nc(-c2ccccc2)c(N=Nc2ccc([N+](=O)[O-])cc2)c1-c1ccccc1)Nc1ccc(Cl)cc1	> 45.7 µM	> 45.7 µM	
Cc1ccc(S(=O)(=O)/N=S(\C)c2cccc(Cl)c2)cc1 (configuration not stated)	> 200 µM	170 µM	

Compound	EC50	IC50	outcome
COC(=O)CCc1ccc2c(c1)CC1(C2)Cc2ccc(CCC(=O)OC)cc2C1	> 200 µM	57.5 µM	
CC(=O)O[C@H]1CC[C@@]2(C)C(CC[C@@H]3C2C(Br)C(=O)[C@]2(C)C4C(CC32)OC2(OCC(C)CC2Br)C4C)C1 (some centres not stated)			inactive
O=C(O)c1csc(C(=O)O)c1	162 µM	759 µM	
Clc1cc2nnn(C3CCCCO3)c2cc1Cl (configuration not stated)	> 200 µM	> 200 µM	
N#CC1CC(c2ccccc2)Nc2cc(Cl)ccc2N1 (configuration not stated)	> 47.9 µM	6.92 µM	
CCOC(=O)C1(C#N)OC(=O)c2cnccc21 (configuration not stated)	> 200 µM	> 200 µM	
CN1CCN(C(=O)c2cccc3cccc(C(=O)O)c23)CC1	> 832 µM	724 µM	
O=c1[nH]c(=O)n(C2CC(O)C(CO)O2)cc1C#Cc1cc(F)cc(F)c1 (configuration not stated)	> 692 µM	355 µM	
COc1ccc(C(=O)Nc2cc(Cc3cc(NC(=O)c4ccc(OC)c(C(=O)O)c4)c(OC)c(C(=O)O)c3)cc(C(=O)O)c2OC)cc1C(=O)O	> 50.1 µM	> 50.1 µM	
C1=C(N2CCOCC2)N(c2ccccc2)c2ccccc2N=C1N1CCCC1			inactive
COc1cc(C(=O)O)c(C(=O)c2ccc(C#N)cc2)cc1OC	> 200 µM	> 200 µM	
Fc1ccc(CN2COc3c(cc(Cl)c4cccnc34)C2)cc1	> 200 µM	0.977 µM	
C=CCCCCCCCCC(=O)ON(Cc1ccc(O)c(OC)c1)C(=O)C(F)(F)F	> 200 µM	> 200 µM	
CCO/C=C1\N=C(c2ccccc2Br)OC1=O	> 316 µM	> 316 µM	
CCN(CC)CCNc1ccc2ncn3c4cc(OC)c(OC)c(=O)c4c(O)c1c23	> 50.1 µM	0.589 µM	
CCCCCCCCCCCCCC(=O)NCC(=O)NC(CO)C(=O)NC(CO)C(=O)NC(CCCCN)C(=O)NC(CO)C(=O)NC(CCCCN)C(=O)N1CCCC1C(=O)NC(CCCCN)C(=O)NC(CC(=O)O)C(N)=O (configuration not stated) (Myristoyl-GSSKSKPKD-NH2; configuration not given here)	> 219 µM	> 219 µM	
COc1c(Br)c(=O)n(C)c(=O)n1C	> 200 µM	> 200 µM	
OC(c1ccccc1)c1c(-c2ccccc2)[nH]c(-c2ccccc2)c1C(O)c1ccccc1 (configuration not stated)			inactive
CC(C)=C1C2CCC1C(CO)C2CO (configuration not stated)	> 457 µM	> 457 µM	
c1ccc([P+](CC2CCCO2)(c2ccccc2)c2ccccc2)cc1 (configuration not stated)	> 200 µM	2.82 µM	
O=C1C=C/C(=N\N=C(c2ccccc2)c2ccccc2)O1	> 200 µM	145 µM	
CN(C)c1ccc(C(=CC=C2C(=O)c3ccccc3C2=O)c2ccc(N(C)C)cc2)cc1	> 11.2 µM	> 11.2 µM	

Compound	EC50	IC50	outcome
C=CCNC(=O)NCCCCC(NC(C)=O)C(=O)NCc1ccccc1 (configuration not stated)	> 692 µM	> 692 µM	
COC(=O)C1Cc2c([nH]c3ccccc23)-c2[nH]c3ccccc3c2CC(NC(C)=O)C(=O)NCC(=O)N1 (configuration not stated)	> 200 µM	> 200 µM	
CCCCCCC(=O)COP(=O)(OCC(=O)CCCCCC)OCC1OC(n2cc(C)c(=O)[nH]c2=O)CC1N=[N+]=[N-] (configuration not stated)	0.00107 µM	2 µM	
CCOC(=O)NN(C(=O)OCC)C(C(=O)C1=CCCCC1)N(NC(=O)OCC)C(=O)OCC	> 200 µM	> 200 µM	
c1ccc2c(c1)CCCc1cc3ccccc3nc1-2	> 55 µM	> 55 µM	
CC1=NN(c2ccccc2)C(=O)C1=C1SCCS1	> 182 µM	> 182 µM	
COc1ccc2nc3ccccc3c(NCCC[N+](C)(C)[O-])c2c1[N+](=O)[O-]	> 200 µM	14.1 µM	
COc1ccc2oc(OC)c(CC=C(C)C)c(=O)c2c1C	> 200 µM	141 µM	
CC(=O)N1C2=CCCC2(C)c2ccccc21 (configuration not stated)	> 200 µM	56.2 µM	
CCN1c2ccccc2-n2c(C)nnc2-c2c1n[nH]c2-c1ccccc1	> 200 µM	28.2 µM	
O=C(Cc1ccccc1)NN1C(=O)C(Cl)C1c1ccc([N+](=O)[O-])cc1 (configuration not stated)	> 20 µM	> 20 µM	
CN(C)CC1CCC/C(=C\c2ccc(OC(=O)/C=C/c3ccc(Cl)cc3)cc2)C1=O (configuration not stated)	> 50.1 µM	2.19 µM	
Cn1c2ccccc2c2c3c(ccc21)C(=O)N(c1ccccc1)C3=O	> 93.3 µM	60.3 µM	
O=C(O)/C=C/c1ccc(Oc2ccccc2C(=O)O)o1	> 49 µM	> 49 µM	
c1ccc(N=C(Nc2ccccc2)N2CCCC2)cc1	> 200 µM	174 µM	
CCCCCCCCCCCCCCCC=C(c1cc(Br)cc(C(=O)OC)c1OC)c1cc(Br)cc(C(=O)OC)c1OC	> 25.7 µM	> 25.7 µM	
C1OCN2CSCC12 (configuration not stated)	> 1910 µM	110 µM	
CCOP(=O)(OCC)/C(=C/c1cccs1)CC(C)=O	> 200 µM	> 200 µM	
COC1Sc2ccccc2C(=O)N2CCCC12 (configuration not stated)	> 200 µM	> 200 µM	
O=c1c(-c2ccc(O)cc2)coc2c(O)c(O)ccc12	> 200 µM	28.8 µM	
Cc1ccc(SCC(CF)OCn2cc(F)c(=O)[nH]c2=O)cc1 (configuration not stated)	> 200 µM	123 µM	
COc1ccc(/C=C2\CN(C)Cc3c2nc(N)nc3-c2ccc(OC)cc2)cc1	> 18.6 µM	> 18.6 µM	

Compound	EC50	IC50	outcome
CNc1ccccc1S(=O)(=O)c1ccccc1[N+](=O)[O-]	3.55 µM	47.9 µM	
O=C1C=CC=C/C1=C1\N=C(c2ccccc2OCC(=O)c2ccc(Br)cc2)SS1	> 50.1 µM	19.5 µM	
O=C(O)CC1OC(=O)C(Br)=C1O (configuration not stated)	> 1050 µM	> 1050 µM	
NC1CCC2(O)c3ccccc3C2C1 (configuration not stated)	> 200 µM	> 200 µM	
COc1cc(C)cc2c(-c3ccc(O)c4c(OC)cc(C)cc34)ccc(O)c12	> 100 µM	2.95 µM	
COc1ccc(-c2[nH]c(=O)n(C3OC(CO)C(O)C(O)C3O)c(=O)c2C#N)cc1 (configuration not stated)	> 200 µM and 186 µM	> 200 µM	
C=CN1C(=O)[C@H](Oc2ccccc2)[C@@H]1c1ccccc1	> 135 µM	63.1 µM	
CC(C)c1ccc(Cc2ccc(C(C)C)c(NC(=O)C(=O)Cc3cnc4ccccc4n3)c2C(C)C)c(C(C)C)c1NC(=O)C(=O)Cc1cnc2ccccc2n1	> 13.2 µM	> 13.2 µM	
COc1c(C(=O)c2ccc([N+](=O)[O-])cc2)cc(C(C)(C)C)cc1C(C)(C)C			inactive
CCCCC1(CCO)C(=O)NC(=S)NC1=O	> 200 µM	> 200 µM	
CC1=CC(C)(C)SC(SSSC2=NC(C)=CC(C)(C)S2)=N1	> 200 µM	38.9 µM	
Cn1c(=O)c2nc(-c3ccccc3)oc2n(C)c1=O			inactive
CC(C)Nc1n[nH]c(=O)n1C(C)C	> 200 µM	> 200 µM	
O=C1CC(=O)n2cnc3cccc(c32)N1	17.4 µM	> 200 µM	
CC(C)(C)O/N=C/c1cc(NC(=S)c2ccccc2)ccc1Cl	0.135 µM	10.7 µM	
COC(OC)(c1ccccc1)C(Br)Br			inactive
CCCC/C=C(/CCCNC=O)[Si](C)(C)C	> 537 µM	> 537 µM	
CC1=C(C(=O)Nc2ccccc2)C(c2ccc([N+](=O)[O-])cc2)C(C(=O)Nc2ccccc2)=C(C)N1	> 15.5 µM	> 15.5 µM	
CCCCCCCCCCCCCCCCCCNc1ccn(C2OC(COP(=O)(O)OCC(COP(=O)(O)OCC3OC(n4cc(C)c(=O)[nH]c4=O)CC3N=[N+]=[N-])OC(=O)CCCCCCCCCCCCCCC)C(O)C2O)c(=O)n1 (configuration not stated)	11.2 µM	69.2 µM	
